This assay has as its system Plasmodium berghei. In words: Luciferase/luciferin-expressing antifolate-resistant parasites were used to infect a culture of HepG2 cells that were pre-incubated with compounds. Infected hepatocytes emit light due to the luciferase reaction. Assay results are presented as the percent inhibition of light emission compared to control. […]. Type of assay: functional. Particulars: sporozoite; for IC90: read-out: LUCIFERASE INFECTION ASSAY - IC90.

Where [1] appears, read: PBLUC_HILL_SLOPE 2.05, PBLUC_R_SQUARED 0.76, read-out: LUCIFERASE INFECTION ASSAY - IC50.

What is called IC50 is the concentration that gives 50% inhibition. A word on the IC90: it is the point of the concentration-response curve where the effect stands at 90%. For the compound `CN(C)c1cccc(-c2cnc3cnc(-c4ccncc4)cn23)c1`, the 90% effect concentration (IC90) is over 10.5 µM. The concentration for half-maximal inhibition (IC50) (PBLUC_HILL_SLOPE 2.07, PBLUC_R_SQUARED 0.374, read-out: LUCIFERASE INFECTION ASSAY - IC50) came out at 6.53 µM.

In the case of `Cc1noc(C)c1S(=O)(=O)N1CCCN(C(=O)c2cc3c(s2)-c2ccccc2CC3)CC1`, the IC90 is over 10 µM. In addition, under “PBLUC_HILL_SLOPE 2.04, PBLUC_R_SQUARED 0.622, read-out: LUCIFERASE INFECTION ASSAY - IC50”, the concentration for half-maximal inhibition (IC50) came to 4.56 µM.

Turning to `COc1ccc(-c2nnc(SC(C)C(=O)NC(C)c3ccc(Cl)cc3Cl)[nH]2)cc1` (configuration not stated), the IC90 was over 10 µM. Moreover, for the setting “PBLUC_HILL_SLOPE 2.09, PBLUC_R_SQUARED 0.0748, read-out: LUCIFERASE INFECTION ASSAY - IC50”, the IC50 came to 5.53 µM.

As for `CCN(Cc1ccc2c(c1)OCO2)C(=O)/C=C/c1c(C)nc2sc(C)cn12`, the 90% effect concentration (IC90) was over 10 µM. The IC50 (PBLUC_HILL_SLOPE 2.08, PBLUC_R_SQUARED 0.691, read-out: LUCIFERASE INFECTION ASSAY - IC50) was 8.61 µM.

`Cc1cc(C)cc(NC(=O)c2cc(C(C)(C)C)n(-c3ccccc3)c2C)c1`: the 90% effect concentration (IC90) amounted to 5.09 µM. Also, the IC50 under setting [1] turned out to be 1.74 µM.

With `Cc1c(C(=O)Nc2nc3c(C)cccc3s2)[nH]c2c1C(=O)CCC2`, the IC90 was over 10 µM. Moreover, where the note is “PBLUC_HILL_SLOPE 2.07, PBLUC_R_SQUARED 0.0587, read-out: LUCIFERASE INFECTION ASSAY - IC50”, the 50% inhibitory concentration (IC50) was determined as 5.05 µM.

`Cc1nc(C2CC2)nc2sc(-c3nc(-c4cccs4)no3)c(N)c12`: the concentration for an effect of 90% (IC90) was over 10 µM. Also, the concentration for half-maximal inhibition (IC50) (PBLUC_HILL_SLOPE 2.09, PBLUC_R_SQUARED 0.41, read-out: LUCIFERASE INFECTION ASSAY - IC50) came out at 4.67 µM.

As for `COc1ccc(-c2nc3cnc(Nc4cccc(OC(F)(F)F)c4)cc3n2C)cc1OC`, the IC90 is over 10 µM. Besides, the IC50 (PBLUC_HILL_SLOPE 2.08, PBLUC_R_SQUARED 0.244, read-out: LUCIFERASE INFECTION ASSAY - IC50) is over 10 µM.

Turning to `CN1CCN(c2ccc(-c3cn4c(-c5cccc(N(C)C)c5)cnc4cn3)cn2)CC1`, the 90% effect concentration (IC90) is over 7.98 µM. Further, the IC50 (PBLUC_HILL_SLOPE 2.11, PBLUC_R_SQUARED 0.385, read-out: LUCIFERASE INFECTION ASSAY - IC50) was found to be 6.15 µM.

As to `CSc1cnc(-n2c(-c3ccc(C)cc3)cs/c2=N\C(=O)c2ccccc2)nc1`, the IC90 was over 10 µM. Besides, the IC50 (PBLUC_HILL_SLOPE 2.11, PBLUC_R_SQUARED 0.145, read-out: LUCIFERASE INFECTION ASSAY - IC50) was over 10 µM.

Take `O=S(=O)(c1ccc2ccccc2c1)N1CCCC1c1nnc2ccccn12` (configuration not stated): the 90% effect concentration (IC90) came to 5.59 µM. The IC50 (PBLUC_HILL_SLOPE 2.1, PBLUC_R_SQUARED 0.614, read-out: LUCIFERASE INFECTION ASSAY - IC50) stood at 1.96 µM.

Consider `COc1cc(-c2nc3ccc(NC(=O)c4cccs4)cn3n2)cc(OC)c1OC`, for which the IC90 turned out to be 6.23 µM. Besides, the IC50 (PBLUC_HILL_SLOPE 2.1, PBLUC_R_SQUARED 0.836, read-out: LUCIFERASE INFECTION ASSAY - IC50) came out at 2.19 µM.

Take `O=C(COC(=O)c1cn(-c2ccccc2)nc1-c1ccccc1)Nc1ccc(Cl)c(S(=O)(=O)N2CCOCC2)c1`: the IC90 was over 10 µM. The IC50 (PBLUC_HILL_SLOPE 2.11, PBLUC_R_SQUARED 0.445, read-out: LUCIFERASE INFECTION ASSAY - IC50) stood at 5.37 µM.

In the case of `CC(C)N(C(=O)CSc1nnnn1C)c1ccc(Nc2ccccc2)cc1`, the IC90 is over 10 µM. Further, the IC50 (PBLUC_HILL_SLOPE 2.1, PBLUC_R_SQUARED 0.364, read-out: LUCIFERASE INFECTION ASSAY - IC50) was over 10 µM.

With `CN(C)c1nc(N)nc(/C(C#N)=C/c2ccc(N(c3ccccc3)c3ccccc3)cc2)n1`, the concentration for an effect of 90% (IC90) was over 10 µM. The half-inhibitory concentration (IC50) (PBLUC_HILL_SLOPE 2.12, PBLUC_R_SQUARED 0.0159, read-out: LUCIFERASE INFECTION ASSAY - IC50) stood at 7.93 µM.

In the case of `Cc1cc(/C=N/Nc2nncc3ccccc23)c(C)n1-c1ccc(I)cc1`, the 90% effect concentration (IC90) was over 10 µM. The concentration for half-maximal inhibition (IC50) (PBLUC_HILL_SLOPE 2.06, PBLUC_R_SQUARED 0.597, read-out: LUCIFERASE INFECTION ASSAY - IC50) turned out to be 6.98 µM.

For the compound `COc1cc(CNCc2ccc3c(c2)OCO3)ccc1OCc1ccc(F)cc1`, the IC90 was over 8.35 µM. Also, the IC50 (PBLUC_HILL_SLOPE 2.11, PBLUC_R_SQUARED 0.727, read-out: LUCIFERASE INFECTION ASSAY - IC50) is 5.34 µM.

For `CC(=O)c1c(C)[nH]c(C(=O)OCC(=O)Nc2c(C)nn(-c3ccccc3)c2C)c1C`, the IC90 was over 10 µM. Moreover, the IC50 (PBLUC_HILL_SLOPE 2.08, PBLUC_R_SQUARED 0.0451, read-out: LUCIFERASE INFECTION ASSAY - IC50) is over 10 µM.

For `CCC1(CC)CC(=O)N(CC(O)COc2ccc(C(C)(C)C)cc2)C1=O` (configuration not stated), the 90% effect concentration (IC90) is over 10 µM. Under “PBLUC_HILL_SLOPE 2.11, PBLUC_R_SQUARED 0.442, read-out: LUCIFERASE INFECTION ASSAY - IC50”, the 50% inhibitory concentration (IC50) is 5.07 µM.

As for `CCc1c(C)sc2[nH]c(-c3ccc(C(=O)N4CCN(S(=O)(=O)c5c(Cl)cccc5Cl)CC4)cc3)nc(=O)c12`, the concentration for an effect of 90% (IC90) worked out at 4.36 µM. Besides, the IC50 under setting [1] stood at 1.49 µM.

Take `C=CCNC(=S)N1CCc2sccc2C1c1ccc(Cl)cc1` (configuration not stated): the IC90 was over 9.46 µM. Also, the half-maximal inhibitory concentration (IC50) (PBLUC_HILL_SLOPE 2.11, PBLUC_R_SQUARED 0.465, read-out: LUCIFERASE INFECTION ASSAY - IC50) came out at 4.12 µM.

As to `Cc1occc1C(=O)NNC(=O)c1csc(-c2ccc(C(C)C)cc2)n1`, the IC90 was over 10 µM. Moreover, the half-inhibitory concentration (IC50) (PBLUC_HILL_SLOPE 2.06, PBLUC_R_SQUARED 0.34, read-out: LUCIFERASE INFECTION ASSAY - IC50) is 8.1 µM.

On to `CC(C)c1ccc(-c2nnc(NC(=O)CNC(=O)c3cccc(S(=O)(=O)N(C)C)c3)s2)cc1`, for which the IC90 is over 10 µM. The IC50 (PBLUC_HILL_SLOPE 2.11, PBLUC_R_SQUARED 0.538, read-out: LUCIFERASE INFECTION ASSAY - IC50) came to 5.39 µM.

`COCCNc1ccc(C(=O)NCCN2CCN(c3cccc(C)c3)CC2)cc1[N+](=O)[O-]`: the IC90 is over 10 µM. For the same compound, the half-maximal inhibitory concentration (IC50) (PBLUC_HILL_SLOPE 2.05, PBLUC_R_SQUARED 0.556, read-out: LUCIFERASE INFECTION ASSAY - IC50) was determined as 6.29 µM.

Turning to `CCn1c2ccccc2c2cc(NC(=O)CN3CCN(Cc4ccc5c(c4)OCO5)CC3)ccc21`, the IC90 is over 10 µM. Besides, the IC50 (PBLUC_HILL_SLOPE 2.07, PBLUC_R_SQUARED 0.0912, read-out: LUCIFERASE INFECTION ASSAY - IC50) turned out to be 8.08 µM.

As to `CN1CCN(c2ccccc2/C=N\Nc2cc(Cl)ccc2Cl)CC1`, the IC90 is over 9.08 µM. Moreover, the half-inhibitory concentration (IC50) (PBLUC_HILL_SLOPE 2.04, PBLUC_R_SQUARED 0.6, read-out: LUCIFERASE INFECTION ASSAY - IC50) was determined as 3.92 µM.

Turning to `CSc1nc2c3c(sc2c2nnc(SCCN(C)C)n12)CCCC3`, the IC90 is over 8.69 µM. Moreover, the half-inhibitory concentration (IC50) (PBLUC_HILL_SLOPE 2.05, PBLUC_R_SQUARED 0.263, read-out: LUCIFERASE INFECTION ASSAY - IC50) is 5.45 µM.

With `COc1ccc(-c2cnc3cnc(-c4cnn(Cc5ccccc5)c4)cn23)cc1`, the IC90 is over 8.65 µM. Besides, the concentration for half-maximal inhibition (IC50) (PBLUC_HILL_SLOPE 2.08, PBLUC_R_SQUARED 0.432, read-out: LUCIFERASE INFECTION ASSAY - IC50) is 7.68 µM.

Take `N#CC(C(=O)COC(=O)c1cc(Br)ccc1O)=C1Nc2ccccc2N1`: the IC90 was over 10 µM. The IC50 (PBLUC_HILL_SLOPE 2.06, PBLUC_R_SQUARED 0.487, read-out: LUCIFERASE INFECTION ASSAY - IC50) amounted to 6.23 µM.

For `O=C(Nc1cccc(-c2nc(-c3cccc(F)c3)cs2)c1)C1CC1`, the IC90 was over 10 µM. Besides, the IC50 (PBLUC_HILL_SLOPE 2.07, PBLUC_R_SQUARED 0.228, read-out: LUCIFERASE INFECTION ASSAY - IC50) worked out at 5.44 µM.

On to `CSc1cccc(N2C(=O)C=C(C)C2=O)c1`, for which the concentration for an effect of 90% (IC90) was over 14.1 µM. Also, the IC50 (PBLUC_HILL_SLOPE 2.08, PBLUC_R_SQUARED 0.24, read-out: LUCIFERASE INFECTION ASSAY - IC50) came out at 13.4 µM.

Take `CCN(CC)S(=O)(=O)c1cccc(C(=O)N/N=C(\C)c2cc(Cl)ccc2Cl)c1`: the IC90 is over 10 µM. The half-maximal inhibitory concentration (IC50) (PBLUC_HILL_SLOPE 2.08, PBLUC_R_SQUARED 0.0166, read-out: LUCIFERASE INFECTION ASSAY - IC50) came to 7.74 µM.

Regarding `CC(C)NC(=O)N1CCCC(C(=O)Nc2nc3c(ccc4ccccc43)s2)C1` (configuration not stated), the IC90 is over 10 µM. For the setting “PBLUC_HILL_SLOPE 2.07, PBLUC_R_SQUARED 0.824, read-out: LUCIFERASE INFECTION ASSAY - IC50”, the concentration for half-maximal inhibition (IC50) was found to be 4.39 µM.

For `Cc1ccc(-c2nn(-c3ccccc3)cc2/C=C/C(=O)NCc2ccc(-n3ccnc3)nc2)cc1`, the concentration for an effect of 90% (IC90) is over 10 µM. For the same compound, the concentration for half-maximal inhibition (IC50) (PBLUC_HILL_SLOPE 2.1, PBLUC_R_SQUARED 0.668, read-out: LUCIFERASE INFECTION ASSAY - IC50) was 5.12 µM.

With `O=C1CCc2cc(-c3csc(NC(=O)c4ccc(-n5cnc6ccccc65)cc4)n3)ccc2N1`, the concentration for an effect of 90% (IC90) worked out at 3.68 µM. Besides, the IC50 (PBLUC_HILL_SLOPE 2.11, 11.5, PBLUC_R_SQUARED 0.409, 0.367, read-out: LUCIFERASE INFECTION ASSAY - IC50) came out at 3.63 µM.

In the case of `CC1CCC(NC(=O)[C@H](Cc2ccccc2)NC(=O)C(c2ccccc2)c2ccccc2)CC1` (some centres not stated), the IC90 was over 10 µM. The half-maximal inhibitory concentration (IC50) (PBLUC_HILL_SLOPE 2.1, PBLUC_R_SQUARED 0.545, read-out: LUCIFERASE INFECTION ASSAY - IC50) came out at 4.82 µM.

(Values after ChEMBL document CHEMBL4483862, “Open-source discovery of chemical leads for next-generation chemoprotective antimalarials” (2018).)
